# Assay results: patent US10709712B2, “Biaryl amide compounds as kinase inhibitors” (NOVARTIS AG, priority 2013, dated 2020)
# Columns and labels:
# [1] = molecular target: b-Raf(V600E) (Homo sapiens (Human), UniProt P15056, V600E); details: read-out: b-Raf IC-50; Table 2; Alpha Screen phospho-MEK, reaction 3 hours
# Description: In Vitro Raf Activity Determination
# Full length MEK1 with an inactivating K97R ATP binding site mutation is utilized as a RAF substrate.
# Assay buffer: 50 mM Tris, pH 7.5, 15 mM MgCl2, 0.01% Bovine Serum Albumin (BSA), 1 mM dithiothreitol (DTT) Stop buffer: 60 mM ethylenediaminetetraacetic acid (EDTA), 0.01% Tween® 20
# biotinylated Mek, kinase dead
# (§1) biotinylated Mek, Kinase dead approximately 10 nM
# (§2) Pre-incubation time with compounds 60 minutes at room temperature
# Reaction time 1 or 3 hours at room temperature
# The plate was incubated for 60 minutes at room temperature.
# (§3) The additions were carried out under dark conditions to protect the detection beads from light. A lid was placed on top of the plate and incubated for 1 hour at room temperature, then the luminescence was read on a PerkinElmer Envision instrument.
# [2] = molecular target: C-Raf FL (full-length C-Raf protein) (Homo sapiens (Human), UniProt P04049, Y340E/Y341E); assay type: biochemical; details: Table 2, Alpha Screen phospho-MEK, reaction 1 hour, read-out: c-Raf FL IC-50
# Excerpt: Sf9 cells co-expressing both proteins were lysed and subjected to immobilized nickel chromatography and eluted with Imidazole. A second column (StrepII binding column) was used and eluted with desthiobiotin. Protein Tags were removed using Prescission enzyme and the protein was further purified using a flowthrough step to remove tags.
# C-Raf FL refers to the full-length C-Raf protein.
# Full length MEK1 with an inactivating K97R ATP binding site mutation is utilized as a RAF substrate. The MEK1 cDNA was subcloned with an N-terminal (his)6 tag into a vector for E. Coli expression. The MEK1 substrate was purified from E. Coli lysate by nickel affinity chromatography followed by anion exchange. The final MEK1 preparation was biotinylated (Pierce EZ-Link Sulfo-NHS-LC-Biotin) and concentrated.
# Assay buffer: 50 mM Tris, pH 7.5, 15 mM MgCl2, 0.01% Bovine Serum Albumin (BSA), 1 mM dithiothreitol (DTT)
# Stop buffer: 60 mM ethylenediaminetetraacetic acid (EDTA), 0.01% Tween® 20
# as §1, §2
# Reaction time 1 or 3 hours at room temperature […]
# as §3
# b-Raf(V600E), sequence (P15056 whole entry V600E): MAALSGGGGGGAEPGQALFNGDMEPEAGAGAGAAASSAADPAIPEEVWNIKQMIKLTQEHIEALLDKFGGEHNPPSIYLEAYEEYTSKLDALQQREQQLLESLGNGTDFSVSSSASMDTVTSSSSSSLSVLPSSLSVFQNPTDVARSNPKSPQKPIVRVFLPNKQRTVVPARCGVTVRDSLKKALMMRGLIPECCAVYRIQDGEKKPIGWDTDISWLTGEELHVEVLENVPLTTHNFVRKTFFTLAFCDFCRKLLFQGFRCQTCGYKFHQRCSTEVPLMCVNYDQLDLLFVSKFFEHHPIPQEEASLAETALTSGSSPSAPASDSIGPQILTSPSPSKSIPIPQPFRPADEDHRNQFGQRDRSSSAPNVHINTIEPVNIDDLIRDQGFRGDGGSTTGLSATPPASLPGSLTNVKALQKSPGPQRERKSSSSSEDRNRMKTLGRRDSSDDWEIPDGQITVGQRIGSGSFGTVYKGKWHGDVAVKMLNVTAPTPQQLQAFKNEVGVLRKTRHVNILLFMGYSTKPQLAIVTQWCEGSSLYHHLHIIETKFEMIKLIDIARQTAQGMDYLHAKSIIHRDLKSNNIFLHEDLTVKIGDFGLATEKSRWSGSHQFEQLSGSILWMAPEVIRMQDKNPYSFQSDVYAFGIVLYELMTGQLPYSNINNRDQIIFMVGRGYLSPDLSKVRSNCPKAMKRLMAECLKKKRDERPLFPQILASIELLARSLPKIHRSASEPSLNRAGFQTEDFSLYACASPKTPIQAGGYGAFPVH
molecule,measurement,setting,value
"Cc1ncc(NC(=O)c2cccc(C(F)(F)F)c2)cc1-c1cc(N2CCOCC2)nc(NC[C@@H](C)O)n1 [Example 743, (R)—N-(5-(2-((2-hydroxypropyl)amino)-6-morpholinopyrimidin-4-yl)-6-methylpyridin-3-yl)-3-(trifluoromethyl) benzamide]",IC50,[1],3.7 nM
"N-(4-methyl-3-(7-morpholino-2-oxo-2,3-dihydrobenzo[d]oxazol-5-yl) phenyl)-3-(trifluoromethyl) benzamide [Example 827]",IC50,[2],0.2 nM
N-(4-methyl-3-(5-morpholino-6-((tetrahydro-2H-pyran-4-yl)oxy)pyridazin-3-yl) phenyl)-6-(trifluoromethyl) pyridazine-4-carboxamide [Example 577],IC50,[1],0.6 nM
